{"source": "patent US20100069316A1", "about": "“TREATMENT FOR MULTIPLE MYELOMA” (Ares Trading S.A., priority 2006, published 2010)", "type_in_all_cases": "cell-based, human", "key": {"[1]": {"test_system": "XG-12 myeloma cell line", "test": "Detection of apoptosis (FITC-annexin V), XG-12", "conditions": "day 3 of culture", "text": "(§1) Apoptotic cells were detected using fluorescein isothiocyanate-labelled annexin V (FITC-annexin-V, Boehringer Mannheim). Annexin V has a high affinity for phosphatidylserine present on the outer cytoplasmic membrane of apoptotic cells. Cells were washed, labeled with FITC-annexin-V according to the manufacturer's recommendations and analyzed with a FACScan flow cytometer using Cell Quest software (Becton Dickinson, Moutain View, Calif., USA).\n(§2) Two myeloma cell lines (XG-3 and XG-12) that are sensitive to compound A (1-(4-{4-[4-(4-chlorophenyl)-pyrimidin-2-ylamino]-benzoyl}-piperazin-1-yl)-ethanone) were selected for the study. To assess the effect of compound A on myeloma cell survival, the percentage apoptotic cells was determined using binding of annexin V to apoptotic cells. The effect of compound A on the cell cycle was assessed by evaluating the percentage of cells in the S phase of the cell cycle by incorporation of BrdU-FITC. Apoptosis, cell cycle and cell numeration were evaluated daily on a four day culture period on the cell lines using the IC10, IC50 and I90 respective doses of compound A."}, "[2]": {"test_system": "XG-3 myeloma cell line", "test": "Detection of apoptosis (FITC-annexin V), XG-3", "conditions": "day 3 of culture", "text": "as §1, §2"}, "[3]": {"test_system": "XG-3 myeloma cell line", "test": "Cell numeration, XG-3", "conditions": "day 3 of culture", "description": "as §2"}, "[4]": {"test_system": "CD138+ primary myeloma cells", "test": "Ex vivo survival of primary myeloma cells in bone marrow culture", "conditions": "bone marrow cells of 10 myeloma patients, 5 days, 1, 3.3, 10 μM", "description": "Bone marrow cells from 10 patients with multiple myeloma (5 patients at diagnosis and 5 relapsing patients) were harvested and mononuclear cells isolated by ficoll hypaque centrifugation.\nAt day 5, cell numbers were counted and the percentage and counts of myeloma cells were determined by FACS staining using an anti-CD138 monoclonal antibody. This made it possible to assay for viable myeloma cells as CD138 is lost on pre-apoptotic myeloma cells (Jourdan, M. et al. (1998) Br. J. Haematol., 100, 637-648). The percentage and count of CD34 hematopoietic progenitors was also determined with an anti-CD34 monoclonal antibody and FACS labeling.\nBone marrow mononuclear cells from 5 patients with newly diagnosed multiple myeloma or from 5 patients with relapsing multiple myeloma were cultured for 5 days with culture medium and 10% fetal calf serum. […] At the end of culture, cells were counted. Viable myeloma cells were determined using FACS labeling with anti-CD138 monoclonal antibody, as well as viable hematopoietic stem cells using an anti-CD34 monoclonal antibody. Results are expressed as the percentage of viable myeloma cells, non-myeloma cells, or CD34 cells compared to the control culture group without inhibitor."}, "[5]": {"test_system": "4 myeloma cell lines", "test": "Combination study of compound A with Velcade or melphalan, proliferation", "conditions": "XG3, XG12, XG7, L363", "description": "Myeloma cells were harvested in the exponential growth phase (at day 3 after culture passage when the cell concentration is around 5×10^5 cells/ml). Cells were washed twice, cultured for 3 hours in RPMI1640 and 10% FCS, washed twice. This makes it possible to remove cell-bound growth factors (in particular recombinant IL-6). Then cells are plated in 96-well flat-bottomed microplates at various concentrations depending on their doubling time: • 5×10^3 cells/well in 100 μl for the cell lines: XG-1, XG-7 • 10^4 cells/well in […] for the cell lines: XG-2, XG-4, XG-6, XG-11, PRMI8226, L363 • 2×10^4 cells/well in 100 μl for the cell lines: XG-3, XG-12, XG-13, XG-14, XG-19, XG-20\nThe culture medium used were: • PRMI1640, 10% FCS and 0.5 ng/ml of IL-6 for XG-1, XG-2, XG-3, XG-4, XG-6, XG-7, XG-11, XG-12, XG-13, XG-19, XG-20 cells • X-VIVO20 and 0.5 ng/ml IL-6 for XG-14 cells • PRMI1640 and 10% FCS for RPMI8226 and L363 cells\nThe diluted compounds, DMSO or control culture medium were added in 100 μl at the start of the culture. Three culture wells were done for one compound dilution and the experiments were done twice (finally six culture wells for one compound dilution).\nCells were cultured for 4 days. […] Cells were then extracted with a cell collector and the thymidine incorporation was determined using a beta cell counter. […]"}, "[6]": {"test_system": "myeloma cell lines (XG-3 and XG-12)", "test": "Cells in S phase (BrdU) in myeloma cell lines", "conditions": "XG-3 and XG-12, IC10, IC50, IC90 doses", "description": "The cell cycle distribution of the cell lines was assessed by flow cytometry analysis by propidium iodide (PI) and bromodeoxyuridine (BrdU) double-staining. Thirty minutes before stopping the culture, BrdU (10 μM) were added to the cultures and then the cells were collected by centrifugation, washed twice in phosphate buffer saline (PBS) and fixed in 70% ethanol for 20 minutes at room temperature. After two washes with PBS, cells were resuspended in 50 μL of 3N HCl, 0.5% Tween 20 and incubated 20 minutes at 20° C. to denature DNA. […] The fluorescence of FL1-H (BrdU) and FL2-A (PI) were analyzed on a FACScan flow cytometer using Cell Quest software (Becton Dickinson).\nas §2"}, "[7]": {"conditions": "XG-3, compound A at IC10 concentration"}, "[8]": {"conditions": "XG-3, compound A at IC50 concentration"}, "[9]": {"conditions": "XG-3, compound A at IC90 concentration"}}, "data": [{"smiles": "CC(=O)N1CCN(C(=O)c2ccc(Nc3nccc(-c4ccc(Cl)cc4)n3)cc2)CC1", "note": "[Compound A, 1-(4-{4-[4-(4-Chloro-phenyl)-pyrimidin-2-ylamino]-benzoyl}-piperazin-1-yl)-ethanone]", "values": [{"measurement": "Annexin V (%) percentage of apoptotic cells", "setting": "[1]; XG-12, compound A at IC50 concentration", "value": 39.5, "unit": "%"}, {"measurement": "Annexin V (%) percentage of apoptotic cells", "setting": "[1]; XG-12, compound A at IC90 concentration", "value": 79.8, "unit": "%"}, {"measurement": "Annexin V (%) percentage of apoptotic cells", "setting": "[2]; [7]", "value": 29.2, "unit": "%"}, {"measurement": "Annexin V (%) percentage of apoptotic cells", "setting": "[2]; [8]", "value": 30.7, "unit": "%"}, {"measurement": "Annexin V (%) percentage of apoptotic cells", "setting": "[2]; [9]", "value": 48.2, "unit": "%"}, {"measurement": "Cells (×10^6/ml) cell counts", "setting": "[3]; [7]", "value": "0.68 ×10^6/ml"}, {"measurement": "Cells (×10^6/ml) cell counts", "setting": "[3]; [8]", "value": "0.47 ×10^6/ml"}, {"measurement": "Cells (×10^6/ml) cell counts", "setting": "[3]; [9]", "value": "0.29 ×10^6/ml"}, {"measurement": "survival of primary myeloma cells", "setting": "[4]", "value": "inhibits the survival of primary myeloma cells"}, {"measurement": "effect of combination with Melphalan on inhibition of myeloma cell proliferation", "setting": "[5]; Melphalan at IC10 or IC50", "value": "additive effect"}, {"measurement": "effect of combination with Velcade on inhibition of myeloma cell proliferation", "setting": "[5]; Velcade at IC10 or IC50", "value": "additive effect"}, {"measurement": "number of cells in the S phase of the cell cycle", "setting": "[6]", "value": "induced a decrease in the number of cell in the S phase"}]}]}
